In patent publication US11540515B2, “Use of dialkoxybenzenes for control of honey bee mite varroa destructor” (Simon Fraser University, priority 2018, dated 2023):
Counter-ions that a name gives are not always drawn.

What was measured:
Varroa mites [1] = assay: Evaluation of acaricidal effect: emerging bees loaded with Varroa mites in glass petri dish, compound on Parafilm; type: in vivo, Varroa destructor; settings: for mites falling off bees: up to end of experiment; for acaricidal effect: highest amount tested (30 μl), end of 24 h
Method: The effect of the compounds was checked in free moving-mites freshly collected from the bottom board using fine paint brush. All collected Varroa were kept on emerging bees at room temperature until the experiment.
Compounds (code-labeled, Table 1) were prepared in hexane:ethyl acetate (1:1) in 10 mM concentration according to instructions. Dilutions only of compound “A” was prepared. […] This setup enabled the testing of all the compounds and to save the mites.
The assay was conducted in glass petri dish (90 mm diameter and 17 mm deep glass) containing moistened filter paper. Five emerging bees loaded with two Varroa mites were put into each plate. The bees were provided with candy (60% of pollen and 40% sugar). 10 μl or 30 μl volume of each compound or control mix was placed on Parafilm paper (5×5 cm) on the plates cover.

Varroa destructor mites [2] = assay: Example 3 paralysis assays in petri dishes (dose response, screen, blends); type: in vivo
Method: Paralysis assays. These assays were done in 10 cm glass Petri dishes. A 3×3 cm piece of Parafilm was stuck to the lid of the dish, in the middle. The Parafilm received […], either pure (controls) or with the compound (treatments). The bottom of the dish received one freshly thawed nurse and one freshly thawed forager, placed ˜3 cm from the center of the dish. One mite was placed between the nurse and the forager, the lid was closed and groups of dishes were placed in an incubator at 30° C. Humidity levels were kept at around 35-40%.
Observation times were 3 h and 5 h. Mites were scored for whether the mite could move normally, was paralyzed (had difficulty moving) or dead (not moving).
Each assay was done in 5 technical replicates, in two biological replicates. Thus, each biological replicate was scored out of 5.
(§1) Experiments were performed in the dishes: i) dose response assays with a single compound at different doses of compound on the Parafilm (1 ng, 10 ng, 100 ng, 1 μg, 10 μg, 100 μg, 1 mg and 10 mg), ii) a screen with six compounds, all at a 1 mg dose, iii) an assay with blends of compounds 3c{3,6} and 3c{6,6}, and iv) one assay without bees (only to check for mite paralysis and death), with compounds 3c{3,6} and 3c{6,6}(pure or 1:1 blend), at 0.5 and 1 mg doses.

Varroa mites [3] = assay: Example 6 behavioral dose response bio-assays of Varroa mites; type: in vivo; settings: for mite paralysis/mortality: 1 mg
Source text: Foragers were collected at the entrance of one or more honey bee hives by aspiration into a jar, when bees were flying back to the colony.
Initially, nurses were collected from an open brood frame of a honey bee hive. Bees apparently attending the brood were targeted for collection. As time passed and temperatures started to drop no open brood was observed, therefore subsequent collections targeted bees around sealed brood. At the end of the sampling period no sealed brood was present, so bees taken from the middle frame of a brood chamber were considered nurses.
Both foragers and nurses were immediately transferred to individual plastic cages (118×98×81 mm: H×W×D), fed with syrup (2:1) and kept overnight in an incubator at 30° C. and 70% RH. Next day, cages were inspected for any dead bees to be removed before freeze killing the bees on dry ice.
For Varroa mite collection, adult bees were taken from the brood chamber's central frames of a mite-infested hive using a glass jar. Bees were fed with syrup (2:1), and kept in an incubator at 30° C. and 70% RH until needed. First collections were made from frames with open and sealed brood, later only from sealed brood frames.
Mite-infested bees in the glass jar were dusted with icy sugar and shaken over a large plastic weighing boat. Dislodged Varroa were immediately transferred with a fine paint brush to a wet filter paper in a plastic petri dish to avoid desiccation. Individual mites were placed then onto the middle of a glass petri dish bottom (10 cm diameter) with a fresh freeze-killed forager or nurse bee on opposite sides of the plate. Synthesized compounds were applied onto a 1 cm^2 Parafilm square attached to the center of the petri dish cover's inner face, Hexane was used as control.
The bio-assays with a forager and a nurse bee, Varroa mite, and synthesized compounds were set in glass petri dishes placed into an incubator at 30° C. and 70% relative humidity. […] Mite paralysis and death were recorded after 3 h and 5 h.

Varroa destructor mites [4] = assay: Example 3 mite paralysis/death in the absence of bees; type: in vivo; settings: no bees, 4.5 h
Method: as §1
Compounds 3c{3,6}, 3c{6,6} were tested on mites in the absence of bees, alone and as a 1:1 blend. Mite paralysis and death were checked every 30 min, up to 4.5 h after initial exposure. Four doses were tested: 0.2, 0.5, 1 and 10 mg.

Varroa [5] = assay: Example 5 Varroa death and paralysis assay, single compounds and blend; set-up: species or system Varroa destructor; settings: in vivo
Method: Assays were done in 9 cm glass Petri dishes. A 2.5×2.5 cm piece of Parafilm was stuck to the lid of the dish, in the middle. 120 μL water were put on filter paper in the middle of the plate. The Parafilm received 10 μL of hexane, either pure (controls) or with the compound (treatments). The bottom of the dish received one freshly thawed nurse and one freshly thawed forager, placed at opposite sides. One mite was placed between the nurse and the forager, the lid was closed and groups of dishes were placed in an incubator at 30° C. Observation times were at 3 h, 5 h and 20 h. Mites were scored for whether the mite could move normally, was paralyzed (had difficulty moving) or dead (not moving). Four types of experiment were performed in the dishes: i) dose response assays with a single compound at different doses of compound on the Parafilm (1 ng, 10 ng, 100 ng, 1 μg, 10 μg, 100 μg, 1 mg) an assay with blends of compounds 3c{3,6} and 3c{6,6} (pure or 1:1 blend) at 0.5 mg and […].

honey bee antennae = settings: earlier evaluation; cited from earlier work
Varroa [6] = settings: earlier evaluation; cited from earlier work

Q: Which “mites falling off bees” value (Varroa mites [1]) does the source give for C=CCOc1ccc(OCCCCC)cc1 [3c{n5,6}, 1-(allyloxy)-4-(pentyloxy)benzene] here?
A: occasionally fell off bees but reattached quickly

Q: Which acaricidal effect (Varroa mites [1]) does the source give for C=CCOc1ccc(OCCCC)cc1 [3c{4,6}, 1-(allyloxy)-4-butoxybenzene] here?
A: clear acaricidal effect

Q: And the “activity relative to compound 3c{3,6} in screen” value (Varroa destructor mites [2]; 1 mg dose)?
A: slightly less active

Q: For CCOc1cccc(OCC)c1 [3b{2,2}, 1,3-diethoxybenzene], which mite paralysis/mortality (Varroa mites [3]) is on record?
A: 50%

Q: For C=CCOc1ccc(OCC)cc1 [3c{2,6}, 1-(allyloxy)-4-ethoxybenzene], which “paralysis and mite death in screen” value (Varroa destructor mites [2]; 1 mg dose, 3 h) is on record?
A: little paralysis

Q: Which acaricidal effect (Varroa mites [1]) does the source give for CCCOc1ccc(OCCC)cc1 [3c{3,3}, 1,4-dipropoxybenzene] here?
A: clear acaricidal effect

Q: And the “paralysis and mite death in screen” value (Varroa destructor mites [2]; 1 mg dose, 3 h)?
A: most reliable mite paralysis

Q: For C=CCOc1ccccc1OCCC [3a{3,6}, 1-allyloxy-2-propoxybenzene], which “mites falling off bees” value (Varroa mites [1]) is on record?
A: occasionally fell off bees but reattached quickly

Q: With Cc1ccc(C(C)C)c(OC=O)c1 [thymyl formate] as the molecule, how does the acaricidal effect (Varroa mites [1]) read?
A: somewhat effective

Q: Which acaricidal effect (Varroa mites [1]) does the source give for C=CCOc1ccc(OCC=C)cc1 [3c{6,6}, 1,4-bis(allyloxy)benzene] here?
A: clear acaricidal effect

Q: What about the “mites falling off bees” value (Varroa mites [1]) of the same molecule?
A: occasionally fell off bees but reattached quickly

Q: And the “fold less active than 3c{3,6} with regard to paralysis and death of mites” value (Varroa destructor mites [2]; from EC50)?
A: ca. 4 ×

Q: And the “EC50 for paralysis and eventual death of mites” value (Varroa destructor mites [2]; neat compound on the source, vapors only, 3 h)?
A: 182 µg

Q: And the “mite paralysis+death” value (Varroa destructor mites [4]; 0.2 mg)?
A: no activity

Q: And the “mite paralysis+death” value (Varroa destructor mites [4]; 0.5 mg)?
A: no activity

Q: What about the “mite paralysis or death” value (Varroa destructor mites [4]; 10 mg) of the same molecule?
A: 100%

Q: And the acaricidal activity alone (Varroa [5])?
A: acaricidal

Q: What about the mite paralysis/mortality (Varroa mites [3]) of the same molecule?
A: 50%

Q: What about the “doses at which mites were paralyzed or killed” value (Varroa mites [3]; FIG. 9 / FIG. 10) of the same molecule?
A: ≥ 10 µg

Q: For CCCCOc1ccc(OCCC)cc1 [3c{4,3}, 1-butoxy-4-propoxybenzene], which acaricidal effect (Varroa mites [1]) is on record?
A: somewhat effective

Q: And the “paralysis and mite death in screen” value (Varroa destructor mites [2]; 1 mg dose, 3 h)?
A: most death

Q: Which “chemosensing and behavior of honey bees” value (honey bee antennae) does the source give for CCN(CC)C(=O)c1cccc(C)c1 [DEET, N,N-diethyl-meta-toluamide] here?
A: not found to affect

Q: What about the “ability of mites to reach a bee” value (Varroa [6]) of the same molecule?
A: reduced

Q: And the “host preference of Varroa” value (Varroa [6])?
A: without affecting
